# Where “and” joins values, the source holds several entries; their conditions need not be identical. Equal values may be shown once.
# Assays:
# [1] = Dissolution of griseofulvin and griseofulvin solid dispersions (with or without surfactant) in SIFsp, pH 6.8; assay type: physicochemical; settings: for % Drug Released / Total Drug Released: SIFsp pH 6.8, gelatin capsule, single vessel; for Average % Released: SIFsp, pH 6.8, average of runs
# Procedure: (§1) All dissolution studies were performed on a Varian VK7025 Dissolution Apparatus equipped with a Varian VK8000 Fraction Collector
# (§2) HPLC Methods for Evaluating Dissolution Aliquots:
# (§3) Determination of Weight % Phenytoin, Carbamazepine, Glyburide, or Griseofulvin.
# (§4) Mobile Phase: 55% acetonitrile/45% ammonium acetate buffer (2.6 g NH4OAc/L H2O with pH adjusted to pH˜5.25 with glacial acetic acid)
# (§5) Column: Agilent Eclipse XDB-C8, 4.6 mm×150 mm×5 μm
# (§6) Detection: UV 254 nm (UV 214 nm can also be used for phenytoin or carbamazepine, UV 291 nm can also be used for griseofulvin); typically five signals were selected from UV 214 nm, 222 nm, 254 nm, 287 nm, 291 nm, and/or 325 nm were collected for each sample.
# (§7) Simulated Intestinal Fluid, without pancreatin, pH 6.8 (SIFsp, pH 6.8)—Added monobasic potassium phosphate (KH2PO4, 34 g) to a 4000-mL beaker. Added deionized/polished water (2000 mL) and mixed using a magnetic stir bar until the KH2PO4 is completely dissolved. Added 0.2 N sodium hydroxide (NaOH, 590 mL) and stirred. The pH was adjusted to pH 6.8±0.1 using 0.2 N NaOH. The sample was diluted with deionized/polished water to a final volume of 5000 mL.
# (§8) The SIFsp media was heated to ˜45° C. in four 2000-mL Kimax bottles in an oven. The sample was degassed according to USP protocol by filtering through a 0.45 μm membrane filter (Pall, Supor-450, 0.45 μm, 90 mm, part # 60200, Lot # 43214) and stirring under vacuum for 5 minutes.
# (§9) Dissolution Conditions #1.
# (§10) Dissolution Conditions #2.
# These Examples describe the dissolution of griseofulvin and griseofulvin solid dispersions by evaluating the samples described in Examples 125-134. SlFsp, pH 6.8 media preparation was described in the Materials and Methods section.
# Samples were transferred into gelatin capsules (Capsugel, size 0CS, Lot # 624282) using a manual single capsule filler. The weight of each capsule and the amount of sample added are found in Table 21 and 22 (Capsule Description).
# These Examples describe the impact of surfactant additives on the dissolution profiles of griseofulvin/CMCAB solid dispersions. Preparations of the griseofulvin/CMCAB, griseofulvin/CMCAB/Tween 80, and griseofulvin/CMCAB/SDS solid dispersions evaluated in this example are described in Examples 135-138. SIFsp, pH 6.8 media preparation was described in the Materials and Methods section.
# Samples were transferred into gelatin capsules (Capsugel, size 00CS, Lot # 637785) using a manual single capsule filler. The weight of each capsule and the amount of sample added are found in Table 23 (Capsule Description).
# [2] = Dissolution of glyburide and glyburide solid dispersions in SIFsp, pH 6.8; assay type: physicochemical; set-up: drug released per capsule, Table 18C (quantity not headed): unit not given here; settings: for % Drug Released / Total Drug Released / Normalized Drug Released / drug released per capsule, Table 18C (quantity not headed): gelatin capsule
# Procedure: as §1, §2, §3, §4, §5, §6
# Preparation of Glyburide Standard Curves
# Glyburide reference standard from USP was dried as directed (106° C. for six hours), then approximately 20-25 mg of glyburide are added to a 25-mL volumetric flask and dissolved in DMSO or 55% acetonitrile/45% ammonium acetate, pH 5.25. The volume was diluted to 25 mL. A set of standard dilutions were prepared either using 10-mL volumetric flasks or Rainin automatic pipetmen.
# as §7, §8, §9, §10
# These Examples describe the dissolution of glyburide and glyburide solid Dispersions by evaluating the samples described in Examples 109-117. SlFsp, pH 6.8 media preperation was described in the Materials and Methods section.
# Samples were transferred into gelatin capsules (Capsugel, size OCS, Lot #624282) using a manual single capsule filler. The weight of each capsule and the amount of sample added are found in Table 18 (Capsule Description).
# These Examples describe the dissolution of glyburide and glyburide solid dispersions by evaluating the samples described in Examples 119-124. SIFsp, pH 6.8 media preperation was described in the Materials and Methods section.
# Samples were transferred into gelatin capsules (Capsugel, size OCS, Lot # 624282) using a manual single capsule filler. The weight of each capsule and the amount of sample added are found in Tables 19 and 20 (Capsule Description).
structure (smiles),measurement,setting,value
"COC1=CC(=O)C[C@@H](C)[C@]12Oc1c(Cl)c(OC)cc(OC)c1C2=O [griseofulvin, Griseofulvin]",% Drug Released,[1]; 15 min,39.8059% and 45.3135% and 36.6133% and 35.8167%
same,Total Drug Released,[1]; 15 min,13.1651 mg and 12.7375 mg and 12.9809 mg and 12.9579 mg
same,% Drug Released,[1]; 30 min,37.0470% and 36.5664% and 39.6132% and 46.9736%
same,Total Drug Released,[1]; 30 min,13.1347 mg and 13.2291 mg and 13.1014 mg and 13.0986 mg
same,% Drug Released,[1]; 45 min,36.6587% and 36.6412% and 39.5262% and 47.1475%
same,Total Drug Released,[1]; 45 min,12.9970 mg and 13.2561 mg and 13.0726 mg and 13.1471 mg
same,% Drug Released,[1]; 60 min,37.2839% and 36.7251% and 40.3033% and 46.5134%
same,Total Drug Released,[1]; 60 min,13.2187 mg and 13.2865 mg and 13.3296 mg and 12.9703 mg
same,% Drug Released,[1]; 90 min,36.3266% and 35.9752% and 39.8005% and 51.1520%
same,Total Drug Released,[1]; 90 min,12.8793 mg and 13.0152 mg and 13.1633 mg and 14.2638 mg
same,% Drug Released,[1]; 120 min,38.9498% and 36.7450% and 40.2775% and 47.3403%
same,Total Drug Released,[1]; 120 min,13.8093 mg and 13.2937 mg and 13.3211 mg and 13.2009 mg
same,% Drug Released,[1]; 150 min,36.6774% and 35.8335% and 39.6316% and 47.7972%
same,Total Drug Released,[1]; 150 min,13.0036 mg and 12.9639 mg and 13.1075 mg and 13.3283 mg
same,% Drug Released,[1]; 180 min,36.6068% and 35.6474% and 39.0996% and 46.7861%
same,Total Drug Released,[1]; 180 min,12.9786 mg and 12.8966 mg and 12.9315 mg and 13.0464 mg
same,% Drug Released,[1]; 210 min,37.1385% and 35.7882% and 39.5796% and 46.7393%
same,Total Drug Released,[1]; 210 min,13.1671 mg and 12.9476 mg and 13.0903 mg and 13.0333 mg
same,% Drug Released,[1]; 240 min,36.7973% and 36.6212% and 39.5780% and 46.2187%
same,Total Drug Released,[1]; 240 min,13.0461 mg and 13.2489 mg and 13.0897 mg and 12.8881 mg
same,griseofulvin release profile,"[1]; SIFsp pH 6.8, FIGS. 7-14, in words",rapid release
same,Average % Released,[1]; 15 min,39.3874%
same,Average % Released,[1]; 30 min,40.0500%
same,Average % Released,[1]; 45 min,39.9934%
same,Average % Released,[1]; 60 min,40.2064%
same,Average % Released,[1]; 90 min,40.8136%
same,Average % Released,[1]; 120 min,40.8282%
same,Average % Released,[1]; 150 min,39.9849%
same,Average % Released,[1]; 180 min,39.5350%
same,Average % Released,[1]; 210 min,39.8114%
same,Average % Released,[1]; 240 min,39.8038%
COc1ccc(Cl)cc1C(=O)NCCc1ccc(S(=O)(=O)NC(=O)NC2CCCCC2)cc1 [Glyburide],Average % Released,"[2]; 10 min, average of capsules",0.1549%
same,Average % Released,"[2]; 10 min, average of vessels",0.0373%
same,% Drug Released,"[2]; 10 min, single vessel",0.0362% and 0.0355% and 0.0403%
same,Total Drug Released,"[2]; 15 min, single vessel",0.0321 mg
same,Average % Released,"[2]; 20 min, average of capsules",1.0081%
same,Average % Released,"[2]; 20 min, average of vessels",0.2490%
same,Normalized Drug Released,[2]; 20 min,0.7201 mg and 0.7299 mg
same,"drug released per capsule, Table 18C (quantity not headed)",[2]; 20 min,1.0149 and 1.0013
same,% Drug Released,"[2]; 20 min, single vessel",0.0355% and 0.2912% and 0.4202%
same,Average % Released,"[2]; 30 min, average of capsules",1.2315%
same,Average % Released,"[2]; 30 min, average of vessels",0.4372%
same,Normalized Drug Released,[2]; 30 min,0.8728 mg and 0.8986 mg
same,"drug released per capsule, Table 18C (quantity not headed)",[2]; 30 min,1.2495 and 1.2136
same,% Drug Released,"[2]; 30 min, single vessel",0.4237% and 0.4293% and 0.4587%
same,Total Drug Released,"[2]; 45 min, single vessel",0.3834 mg and 0.3424 mg and 0.4071 mg
same,Average % Released,"[2]; 60 min, average of capsules",1.7763%
same,Average % Released,"[2]; 60 min, average of vessels",0.5522%
same,Normalized Drug Released,[2]; 60 min,1.2890 mg and 1.2660 mg
same,"drug released per capsule, Table 18C (quantity not headed)",[2]; 60 min,1.7923 and 1.7603
same,% Drug Released,"[2]; 60 min, single vessel",0.4365% and 0.5720% and 0.6480%
same,Total Drug Released,"[2]; 60 min, single vessel",0.3950 mg and 0.4562 mg and 0.5752 mg
same,Total Drug Released,"[2]; 90 min, single vessel",0.6124 mg and 0.6166 mg and 0.7677 mg
same,Average % Released,"[2]; 120 min, average of capsules",2.1001%
same,Average % Released,"[2]; 120 min, average of vessels",0.7716%
same,Normalized Drug Released,[2]; 120 min,1.5740 mg and 1.4468 mg
same,"drug released per capsule, Table 18C (quantity not headed)",[2]; 120 min,2.1886 and 2.0117
same,% Drug Released,"[2]; 120 min, single vessel",0.6767% and 0.7732% and 0.8649%
same,Total Drug Released,"[2]; 120 min, single vessel",0.7134 mg and 0.7222 mg and 0.8356 mg
same,Total Drug Released,"[2]; 150 min, single vessel",0.8270 mg and 0.8369 mg and 0.9711 mg
same,Average % Released,"[2]; 180 min, average of capsules",2.2533%
same,Average % Released,"[2]; 180 min, average of vessels",0.8784%
same,Normalized Drug Released,[2]; 180 min,1.6724 mg and 1.5688 mg
same,"drug released per capsule, Table 18C (quantity not headed)",[2]; 180 min,2.3253 and 2.1813
same,% Drug Released,"[2]; 180 min, single vessel",0.7882% and 0.9056% and 0.9414%
same,Total Drug Released,"[2]; 180 min, single vessel",0.8919 mg and 0.9402 mg and 0.9572 mg
same,Total Drug Released,"[2]; 210 min, single vessel",0.9428 mg and 0.9956 mg and 1.4143 mg
same,Average % Released,"[2]; 240 min, average of capsules",2.3376%
same,Average % Released,"[2]; 240 min, average of vessels",1.0191%
same,Normalized Drug Released,[2]; 240 min,1.7153 mg and 1.6471 mg
same,Total Drug Released,[2]; 240 min,0.1934 mg and 0.1252 mg
same,"drug released per capsule, Table 18C (quantity not headed)",[2]; 240 min,2.3850 and 2.2902
same,% Drug Released,"[2]; 240 min, single vessel",0.9138% and 1.0495% and 1.0941%
same,Total Drug Released,"[2]; 240 min, single vessel",1.0358 mg and 1.0726 mg and 1.2243 mg
same,Average % Released,"[2]; 300 min, average of capsules",2.4335%
same,Average % Released,"[2]; 300 min, average of vessels",1.0810%
same,Normalized Drug Released,[2]; 300 min,1.7802 mg and 1.7202 mg
same,Total Drug Released,[2]; 300 min,0.2583 mg and 0.1982 mg
same,"drug released per capsule, Table 18C (quantity not headed)",[2]; 300 min,2.4752 and 2.3918
same,% Drug Released,"[2]; 300 min, single vessel",0.9855% and 1.1790% and 1.0784%
same,Average % Released,"[2]; 360 min, average of capsules",2.5067%
same,Average % Released,"[2]; 360 min, average of vessels",1.2945%
same,Normalized Drug Released,[2]; 360 min,1.8465 mg and 1.7592 mg
same,Total Drug Released,[2]; 360 min,0.3246 mg and 0.2373 mg
same,"drug released per capsule, Table 18C (quantity not headed)",[2]; 360 min,2.5674 and 2.4461
same,% Drug Released,"[2]; 360 min, single vessel",1.0417% and 1.2484% and 1.5934%
same,Average % Released,"[2]; 450 min, average of capsules",2.5617%
same,Average % Released,"[2]; 450 min, average of vessels",1.2896%
same,Normalized Drug Released,[2]; 450 min,1.8424 mg
same,Total Drug Released,[2]; 450 min,0.3205 mg
same,"drug released per capsule, Table 18C (quantity not headed)",[2]; 450 min,2.5617
same,% Drug Released,"[2]; 450 min, single vessel",1.1444% and 1.3449% and 1.3793%

# Reference: US20070178152A1, “Carboxyalkylcellulose esters for administration of poorly soluble pharmaceutically active agents” (priority 2005, published 2007)
